Among the test systems are K562; A498; TK-10; SNB-19; HT-29; LOX IMVI; PC-3; DU-145; OVCAR-4; Malme-3M; SF-295; EKVX; SF-539; ACHN; MCF7; MDA-N; BT-549; 786-0; UO-31; SK-OV-3.
Holding throughout (test): NCI anticancer screen, dose series, 48 h

The structures appear in SMILES notation.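 Step 1: Grow cells in 96-well plates. Step 2: Expose to compound for 48 hours at 5 concentrations. Step 3: Interpolate endpoints linearly; if unreached, use highest concentration. Here, GI50 denotes the concentration required for 50% inhibition of growth.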 Active and inactive are the calls of the source. Cut-off read from the data, not from the text of the source: active = GI50 up to about 1.1 µM and inactive = higher. Bounds are passed on as bounds.

Regarding `O=C(c1ccccc1F)c1c(NCc2ccccc2)c(=O)c1=O`, the GI50 with K562, in the assay on A498, with TK-10, in the assay with SNB-19, in the assay on HT-29 and with LOX IMVI was > 100 µM (inactive) in each case. Besides, the GI50 with PC-3, in the assay on DU-145, with OVCAR-4, with Malme-3M, in the assay with SF-295 and with EKVX was > 100 µM (inactive) each time. Besides, the GI50 in the assay with SF-539, in the assay on ACHN, with MCF7, with MDA-N, in the assay on BT-549 and in the assay with 786-0 was > 100 µM (inactive) each time. Further, the GI50 in the assay with UO-31 and in the assay on SK-OV-3 was > 100 µM (inactive) in each case.

Consider `CCOC(=O)C1=C(C)N(Cc2ccccc2)C2(O)C=CC(O)=C3C(=O)c4ccccc4C(=O)C312` (stereo not given), for which the GI50 with K562 was 15.1 µM (inactive); in the assay on A498 it was 23.6 µM (inactive); with TK-10, 18.5 µM (inactive); in the assay with SNB-19 it was 26.5 µM (inactive); in the assay on HT-29 it was 31.5 µM (inactive); in the assay on LOX IMVI, 14.1 µM (inactive). For the same compound, the GI50 in the assay on PC-3 is 19.2 µM (inactive); in the assay with DU-145 it was 16.5 µM (inactive); with OVCAR-4 it was 15.4 µM (inactive); in the assay with Malme-3M it was 2.43 µM (inactive); in the assay with SF-295 it was 10.3 µM (inactive); in the assay on EKVX, 16.4 µM (inactive). Also, the GI50 is 16.3 µM (inactive) in the assay with SF-539; 17.4 µM (inactive) with ACHN; 0.128 µM (active) in the assay with MCF7; 6.37 µM (inactive) with MDA-N; 0.541 µM (active) in the assay with BT-549; 13.4 µM (inactive) with 786-0. For the same compound, the GI50 in the assay with UO-31 is 9.73 µM (inactive); in the assay on SK-OV-3 it was 29.6 µM (inactive).

As to `CC1=C(C2=C(C)C(=O)C(=O)c3cc(C)ccc32)c2ccc(C)cc2C(=O)C1=O`, the GI50 was 0.185 µM (active) in the assay with K562; 1.59 µM (inactive) in the assay with A498; 0.64 µM (active) with TK-10; 0.15 µM (active) in the assay on SNB-19; 0.277 µM (active) in the assay on HT-29; 0.207 µM (active) with LOX IMVI. In addition, the GI50 was 0.298 µM (active) in the assay on PC-3; 1.44 µM (inactive) in the assay on DU-145; 0.221 µM (active) in the assay on OVCAR-4; 0.215 µM (active) in the assay with Malme-3M; 0.194 µM (active) in the assay on SF-295; 0.28 µM (active) in the assay with EKVX. In addition, the GI50 is 0.182 µM (active) in the assay with SF-539; 0.189 µM (active) in the assay with ACHN; 0.218 µM (active) in the assay on MCF7; 0.187 µM (active) in the assay on MDA-N; 0.19 µM (active) in the assay with BT-549; 0.318 µM (active) in the assay with 786-0. Moreover, the GI50 in the assay with UO-31 is 0.178 µM (active); in the assay with SK-OV-3, 1.45 µM (inactive).

As to `CN(C)c1ccc(/C=C/C=C(/C#N)c2ccccc2)cc1`, the GI50 in the assay on K562 is 4.22 µM (inactive); with A498 it was 24.3 µM (inactive); in the assay with TK-10, 42.8 µM (inactive); in the assay on SNB-19, 30.1 µM (inactive); in the assay on HT-29 it was 7.57 µM (inactive); in the assay with LOX IMVI it was 11.2 µM (inactive). The GI50 is 39.3 µM (inactive) with PC-3; 55.7 µM (inactive) with DU-145; > 38.6 µM (inactive) with OVCAR-4; 14 µM (inactive) in the assay on Malme-3M; 26.8 µM (inactive) in the assay on SF-295; 55.2 µM (inactive) in the assay with EKVX. Further, the GI50 was 16.4 µM (inactive) with SF-539; 34.4 µM (inactive) in the assay with ACHN; 17.7 µM (inactive) in the assay on MCF7; 1.94 µM (inactive) in the assay with MDA-N; > 100 µM (inactive) in the assay with BT-549; 28.1 µM (inactive) with 786-0. The GI50 in the assay on UO-31 was > 46 µM (inactive); in the assay on SK-OV-3, 34.8 µM (inactive).

As for `O=[N+]([O-])C(C(Cl)=C(Cl)Cl)=C(N1CCCCC1)N1CCCCC1`, the GI50 is 90.2 µM (inactive) with K562; > 100 µM (inactive) in the assay with A498; > 100 µM (inactive) with TK-10; 1.95 µM (inactive) in the assay on SNB-19; > 100 µM (inactive) with HT-29; 55 µM (inactive) in the assay on LOX IMVI. Further, the GI50 in the assay on PC-3 was > 100 µM (inactive); with DU-145, > 100 µM (inactive); with OVCAR-4 it was > 100 µM (inactive); in the assay on Malme-3M, 39.5 µM (inactive); in the assay with SF-295, > 100 µM (inactive); in the assay with EKVX, > 100 µM (inactive). The GI50 with SF-539 is > 100 µM (inactive); with ACHN, > 100 µM (inactive); in the assay on MCF7, 90.4 µM (inactive); in the assay with MDA-N it was 68.2 µM (inactive); with BT-549, > 100 µM (inactive); in the assay on 786-0 it was > 100 µM (inactive). The figures for the GI50 in the assay on UO-31 and in the assay on SK-OV-3 were 22.1 µM (inactive) and > 100 µM (inactive), respectively.

In the case of `C[C@]12CC[C@H]3[C@@H](CC=C4C[C@@H](O)CC[C@@]43C)[C@@H]1C/C(=C/c1ccccc1)[C@@H]2O`, the GI50 in the assay on K562 was > 23.6 µM (inactive); in the assay on A498, 17.2 µM (inactive); in the assay with TK-10 it was 27.8 µM (inactive); in the assay with SNB-19, 22.4 µM (inactive); in the assay on HT-29, 28.3 µM (inactive); with LOX IMVI, > 33.6 µM (inactive). In addition, the GI50 in the assay with PC-3 was 18.9 µM (inactive); in the assay on DU-145, > 42.2 µM (inactive); in the assay with OVCAR-4 it was 19.2 µM (inactive); with Malme-3M, 27.5 µM (inactive); in the assay on SF-295 it was > 36.7 µM (inactive); in the assay on EKVX it was 11.8 µM (inactive). The GI50 in the assay on SF-539 is 30.7 µM (inactive); in the assay on ACHN it was 16.4 µM (inactive); with MCF7, > 33 µM (inactive); with MDA-N, 20.1 µM (inactive); in the assay on BT-549 it was 24.1 µM (inactive); in the assay with 786-0, 22.1 µM (inactive). Further, the figures for the GI50 in the assay with UO-31 and in the assay with SK-OV-3 were 18.1 µM (inactive) and 37.6 µM (inactive), respectively.

In the case of `CO[C@@H]1C[C@H]2N3CC[C@@]2(c2cc4c(cc2C3)OCO4)[C@H]2O[C@@H]12`, the GI50 in the assay on K562, in the assay with A498, in the assay with TK-10, in the assay with SNB-19, with HT-29 and in the assay on LOX IMVI was > 100 µM (inactive) each time. Further, the GI50 with PC-3, in the assay with DU-145, with OVCAR-4, in the assay on Malme-3M, with SF-295 and with EKVX was > 100 µM (inactive) in each case. For the same compound, the GI50 was 0.603 µM (active) in the assay with SF-539; > 100 µM (inactive) with ACHN; > 100 µM (inactive) in the assay with MCF7; > 100 µM (inactive) in the assay on MDA-N; > 100 µM (inactive) in the assay on BT-549; > 100 µM (inactive) in the assay with 786-0. The GI50 with UO-31 and with SK-OV-3 was > 100 µM (inactive) throughout.

Source of the values: ChEMBL document CHEMBL1201862, “PubChem BioAssay data set” (2004).
